Data from ChEMBL document CHEMBL3507680, “University of Dundee, Gates Library screen for HepG2 cell viability”.

Assay: Human HepG2 cell viability assay in 384 well format
Format: toxicity, cell-based
Design: dose 125 nL, time 70.5 hour; cytotoxicity at 70.5 h: concentration not given beside the values
Settings: HepG2 cells, read-out: Inhibition

SMILES	cytotoxicity at 70.5 h [%]
CN(Cc1ccc(-n2ccnc2)cc1)CC1CCCN1c1cccnn1 (stereo not given)	23
Cc1nc(CN2CCN(C(=O)c3sccc3C3CC3)CC2)oc1C	12.6
Cc1cc(C)n(CC2CCCN2C(=O)c2nccc3ccccc23)n1 (stereo not given)	-0.984
CCCn1[nH]cc/c1=N\C(=O)CN1CCc2c(nc(C3CC3)n2C)C1	-9.16
Cc1cnn(CC2CCCN2C(=O)c2cc3ccccc3c(=O)[nH]2)c1 (stereo not given)	-12.3
CC(Cn1cccn1)NC(=O)NCc1ccc(C(N)=O)cc1 (stereo not given)	-15.4
Cc1cc(CN2CCN(C(=O)c3sccc3C3CC3)CC2)no1	-7.26
Cc1ccc(C(=O)NC2CCN(C(=O)Nc3ccncc3)CC2)o1	-13.5
CCn1ccnc1CN1CCN(CC(O)c2cccc(F)c2)CC1 (stereo not given)	-5.97
Cc1cnn(CC2CN(Cc3nc4ccccc4o3)CCO2)c1 (stereo not given)	-12.1
Cc1cnn(CC2CN(Cc3nc(C)c4ccccc4n3)CCO2)c1 (stereo not given)	-7.25
CC(C)c1nc2c(n1C)CCN(CC(=O)Nc1cccnc1)C2	-9.65
Cc1ccc(C(O)CN2CCN(Cc3nccn3C)CC2)cc1C (stereo not given)	2
CC(C)Oc1ccc(C(=O)N2CCC(Nc3cccnn3)CC2)cn1	-5.88
O=C(c1ccc(NC2CC2)nc1)N1CCC(Nc2cccnn2)CC1	-8.71
Cc1cnn(CC2CCCCN2C(=O)c2nccnc2N)c1 (stereo not given)	-4.52
CC(C)c1nc2c(n1C)CCN(CC(=O)Nc1ccncc1)C2	-7.84
O=C(c1ccccc1-n1cccn1)N1CCC(Nc2cccnn2)CC1	-8.8
O=C(CCc1c(F)cccc1F)N1CCCCC1Cn1cccn1 (stereo not given)	1.38
O=C(CCc1ccccc1)N1CCCCC1Cn1cccn1 (stereo not given)	11.8
O=C(CCc1ccc2c(c1)OCO2)N1CCCCC1Cn1cccn1 (stereo not given)	-8.55
Cc1cnn(CC2CCCN2C(=O)c2nccnc2N)c1 (stereo not given)	-6.62
CCC1CCCCN1C(=O)c1ccnc(N(C)C)c1 (stereo not given)	-0.362

SMILES	cytotoxicity at 70.5 h [%]
O=C(NCCCn1ccnc1)NCC(c1ccco1)N1CCCC1 (stereo not given)	5.06
CCc1nc(C2CCCN(C(=O)c3cccc(Cl)c3)C2)no1 (stereo not given)	-1.41
CCn1cc(NC(=O)NCC(C)(C)N2CCc3ccccc3C2)cn1	13.8
CCN(Cc1ccccc1)Cc1nc2c(cnn2C)c(=O)[nH]1	17
O=C(NCc1ccnc(-n2cccn2)c1)C1CC(=O)N(CC2CC2)C1 (stereo not given)	-8.83
CN(C)c1cc(C(=O)N2CCCCC2CNS(C)(=O)=O)ccn1 (stereo not given)	0.448
O=C(NCCCn1cccn1)NCC(c1ccco1)N1CCCC1 (stereo not given)	-2.3
CCC(CNC(=O)Nc1cnn(CC)c1)N1CCc2ccccc2C1 (stereo not given)	-4.26
CCN(Cc1nc2c(cnn2C)c(=O)[nH]1)Cc1ccccc1Cl	0.498
CCN(Cc1cccc(C)c1)Cc1nc2c(cnn2C)c(=O)[nH]1	-2.57
CCN(Cc1cccc(F)c1)Cc1nc2c(cnn2C)c(=O)[nH]1	14.7
CCN(Cc1ccc(OC)c(F)c1)Cc1nc2c(cnn2C)c(=O)[nH]1	-1.49
CS(=O)(=O)N1CCN(CC(O)COc2ccc(Cl)cc2)CC1 (stereo not given)	0.0303
NC(=O)Cn1cc(NC(=O)NCCN2CCc3ccccc3C2)cn1	-5.44
Cc1nc2c(c(C)c1CC(=O)NCc1ccc(F)cc1)c(=O)[nH]n2C	21.3
O=C(CCc1ccc(Cl)s1)N1CCC(N2CCNC2=O)CC1	-3.74
Cc1nc2c(c(C)c1CC(=O)NCc1ccco1)c(=O)[nH]n2C	-3.09
CCc1nc(C2CCCN(C(=O)c3ccc4[nH]cnc4c3)C2)no1 (stereo not given)	12.5
CCOC1CCN(C(=O)NCCc2ccn(-c3ccccc3)n2)CC1	-2.77
CCc1nc(C2CCCN(C(=O)c3ccncc3)C2)no1 (stereo not given)	-1.21
Cc1cnn(CC2CCCCN2C(=O)c2cccc(C(N)=O)c2)c1 (stereo not given)	-1.63
Cc1cnn(CC2CCCCN2C(=O)c2ccc3[nH]c(=O)[nH]c3c2)c1 (stereo not given)	-0.746
CC(=O)Nc1nc(C(=O)N2CCCC2Cn2cccn2)cs1 (stereo not given)	-0.875

SMILES	cytotoxicity at 70.5 h [%]
Cc1cnn(CC2CCCCN2C(=O)c2ccc(CN(C)C)cc2)c1 (stereo not given)	-8.06
Cc1cnn(CC2CCCCN2C(=O)c2ccc(N(C)C)nc2)c1 (stereo not given)	0.883
CC(=O)Nc1nc(C(=O)N2CCCCC2Cn2cccn2)cs1 (stereo not given)	-0.594
CCn1c(C)nnc1CN(C)C1CCN(CCOc2ccccc2)C1 (stereo not given)	29.3
Cc1nc(C)n(CC2CCCN(CCC(=O)NC3CCCC3)C2)n1 (stereo not given)	24.8
CC(=O)N(Cc1ncc(C)o1)C1CCN(Cc2ccon2)C1 (stereo not given)	22.2
CC(=O)N(Cc1noc(C)n1)C1CCN(Cc2ncc(C(C)C)o2)C1 (stereo not given)	51.4
CC(=O)N(Cc1ncc(C)o1)C1CCN(Cc2csc(C)n2)C1 (stereo not given)	-1.47
CCn1cnnc1CNC(=O)N1CCN(CC(C)C)CC1	-1.52
CC(=O)N(Cc1ncc(C)o1)C1CCN(Cc2cc(C)on2)C1 (stereo not given)	-4.42
Cc1cnn(CC2CCCN2C(=O)CCc2ccncc2)c1 (stereo not given)	-1.24
CCn1c(C)nnc1CN(C)C1CCN(CCS(=O)(=O)CC)C1 (stereo not given)	-5.35
O=C(CN(Cc1ccco1)C1CC1)N1CCCCCC1	-1.39
CS(=O)(=O)NC1CCCN(C(=O)NCc2ccccc2Cl)C1 (stereo not given)	-2.53
Cc1ccc(CNC(=O)N2CCCC(NS(C)(=O)=O)C2)cc1 (stereo not given)	2.89
CCn1cnnc1CNC(=O)N1CCC(OCc2ccccc2)CC1	-2.7
CCn1cnnc1CNC(=O)N1CCN(CCc2ccccc2)CC1	-2.4
O=C(NCC(c1ccc(F)cc1)N1CCOCC1)Nc1cn[nH]c1 (stereo not given)	18.9
CC(=O)NC1CCCN(C(=O)NCc2cccnc2)C1 (stereo not given)	0.9
Cc1cccc(C(=O)N(C)C2CCN(c3ccccn3)CC2)c1C	2.5
CN(C(=O)c1cccc(Cl)c1)C1CCN(c2ccccn2)CC1	2.1
CCn1cnnc1CNC(=O)N1CCN(Cc2ccco2)CC1	1.5
CCOc1ncccc1C(=O)N(C)C1CCN(c2ccccn2)CC1	2.78

SMILES	cytotoxicity at 70.5 h [%]
COc1ccccc1C(=O)N(C)C1CCN(c2ccccn2)CC1	-0.00253
CCc1nc(C2CCCN(C(=O)NC(C)C)C2)no1 (stereo not given)	21.2
N#Cc1ccsc1C(=O)N1CCCN(Cc2cscn2)CC1	5.01
Cc1nc(C)n(CC2CN(CCC(=O)N3CCCCC3)CCO2)n1 (stereo not given)	-6.29
Cc1cn2c(n1)CCC(NC(=O)c1cncnc1C)C2 (stereo not given)	-5.83
Cc1csc(C2CCCCN2C(=O)CN(C)C2CC2)n1 (stereo not given)	-8.97
Cc1cnn(CC2CCCCN2Cc2nnc(C3CC3)n2C)c1 (stereo not given)	-6.92
CCOC1CCCN(C(=O)NCCc2ccn(-c3ccccc3)n2)C1 (stereo not given)	9.56
Cc1cnc(CN(C)CC2CCCN2c2cccnn2)cn1 (stereo not given)	14.1
CCn1cc(NC(=O)NCC(O)CN2CCc3ccccc3C2)cn1 (stereo not given)	11.8
CC(=O)Nc1nc(CN2CCCC2Cn2cc(C)cn2)cs1 (stereo not given)	30.3
CC(=O)Nc1nc(CN2CCOC(Cn3cc(C)cn3)C2)cs1 (stereo not given)	-7.56
O=C(NCCc1ccn(-c2ccccc2)n1)N1CCC1	-2.97
Cn1ccnc1CN1CCN(CC(O)c2cccc(F)c2)CC1 (stereo not given)	-12.2
CCN1CC(C(=O)NCc2ccccc2-n2cccn2)CC1=O (stereo not given)	-10.2
CCN(Cc1cccc(Cl)c1)Cc1nc2c(cnn2C)c(=O)[nH]1	-7.7
CC(C)c1nc2c(n1C)CCN(CC(=O)Nc1nccs1)C2	-24.8
Cc1ccc(NC(=O)N2CCC(NC(=O)c3ccc(C)o3)CC2)cc1	-11.5
CS(=O)(=O)N1CCN(CC(O)COc2ccc(F)cc2)CC1 (stereo not given)	-11.1
O=C(c1cc(F)ccc1F)C1CCN(C(=O)c2ccc(=O)[nH]n2)CC1	-9.24
CCN1CCN(C2CCN(Cc3nnc(C(C)(C)C)o3)CC2)C1=O	-11.1
Cc1cnn(CC2CCCN2C(=O)c2cc3ccccc3[nH]c2=O)c1 (stereo not given)	8.93
CC(=O)Nc1nc(C(=O)N2CCCC2Cn2cc(C)cn2)cs1 (stereo not given)	-10.5

SMILES	cytotoxicity at 70.5 h [%]
Cc1cnn(CC2CCCCN2C(=O)c2ccc3[nH]nnc3c2)c1 (stereo not given)	-11.6
Cc1nnc(CN2CCN(CC(O)c3cccc(F)c3)CC2)n1C (stereo not given)	-15.6
CCc1nc(C2CCCN(C(=O)c3ccc4c(c3)nnn4C)C2)no1 (stereo not given)	-7.83
CCc1n[nH]c(C2CN(C(=O)c3cnc[nH]3)CCO2)n1 (stereo not given)	-15.6
O=C(c1cc(F)ccc1F)C1CCN(C(=O)c2cccnc2O)CC1	-16.4
O=C(NCCn1ccnc1)NCC(c1ccco1)N1CCCCC1 (stereo not given)	-9.78
CC1(C)CN(C(=O)NCCc2ccn(-c3ccccc3)n2)CCO1	-12.4
COc1cccc(CCC(=O)N2CCCCC2Cn2cccn2)c1 (stereo not given)	-11.2
CCn1ccnc1CN1CCCN(C(=O)Cc2ccc(C)nc2)CC1	-14.5
CCn1ccnc1CN1CCCN(C(=O)Cn2nc(C)cc2C)CC1	-19.3
Cc1nc(CN2CCOC(Cn3cncn3)C2)nc2ccccc12 (stereo not given)	-16.8
COCCc1noc(CNCC2CCCN2c2cccnn2)n1 (stereo not given)	2.33
CC(C)COC(C)C(=O)NCc1ccc(N(C)C)cc1 (stereo not given)	7.68
c1cnn(CC2CN(CCc3ccncc3)CCO2)c1 (stereo not given)	-4.36
Cn1cnnc1C1CCCN(C(=O)c2ccccc2Cl)C1 (stereo not given)	-4.06
COc1ccc(Br)c(C(=O)NCCNc2ccc(C(F)(F)F)cn2)c1	-13.7
COc1ccc(C(CNC(=O)Nc2cn[nH]c2)N2CCOCC2)cc1 (stereo not given)	-4.89
CC(C)COC(C)C(=O)NCc1ccc(OC(C)C)nc1 (stereo not given)	-3.57
COc1ccccc1CNC(=O)N1CCCC(NS(C)(=O)=O)C1 (stereo not given)	15.3
COc1ccc(CNCc2c(C)nn(C)c2N2CCOCC2)cc1	-3.63
Cc1nc2c(c(C)c1CC(=O)Nc1cccc(C#N)c1)c(=O)[nH]n2C	15.2
CN(C(=O)c1cc(Cl)c[nH]1)C1CCN(c2ccccn2)CC1	8.18
O=C(NCCS(=O)(=O)N1CCc2ccccc21)c1c(O)cc(F)cc1F	-2.02
